From US6221862A, “Microbicide 1,4,2-dioxazine derivatives” (Bayer Aktiengesellschaft, priority 1997, dated 2001) come the findings set out here.

Molecules are shown by their SMILES. Some results are limits rather than exact numbers.

The nature of data set [1]: logP determination by HPLC (EEC Directive 79/831 Annex V. A8). The conditions noted are these: acetonitrile/0.1% aqueous phosphoric acid, gradient method, acetonitrile/0.1% strength aqueous phosphoric acid. Format: physicochemical. On the procedure:
The logP values were determined in accordance with EEC Directive 79/831 Annex V. A8 by HPLC (gradient method, acetonitrile/0.1% strength aqueous phosphoric acid)

Data set [2] deals with Leptosphaeria nodorum. In words: Leptosphaeria nodorum test (wheat)/curative. Type of data set: in vivo. The settings on record: curative, 250 g/ha, 10 days after inoculation, 0% = control, 100% = no infestation. On the procedure:
Leptosphaeria nodorum test (wheat)/curative
Solvent: 10 parts by weight of N-methyl-pyrrolidone
(§1) Emulsifier: 0.6 part by weight of alkylaryl polyglycol ether
(§2) To prepare an appropriate formulation of the active compound, 1 part by weight of active compound is mixed with the stated amounts of solvent and emulsifier, and the concentrate is diluted with water to the desired concentration.
To test for curative activity, young plants are sprayed with a conidia suspension of Leptosphaeria nodorum. The plants remain in an incubation cabin at 20° C. and 100% relative atmospheric humidity for 48 hours and are then sprayed with the formulation of the active compound in the stated application amount.
The plants are placed in a greenhouse at a temperature of about 15° C. and a relative atmospheric humidity of about 80%.
(§3) Evaluation is carried out 10 days after the inoculation. In this evaluation, 0% means a degree of action which corresponds to that of the control, while a degree of action of 100% means that no infestation is observed.

The next data set has as its system Puccinia. In words: Puccinia test (wheat)/protective. Type of data set: in vivo. The conditions noted are these: protective, 250 g/ha, 10 days after inoculation, 0% = control, 100% = no infestation. On the procedure: Puccinia test (wheat)/protective
(§4) Solvent: 25 parts by weight of N,N-dimethylacetamide
as §1, §2
To test for protective activity, young plants are sprayed with the formulation of the active compound in the stated application amount. After the spray coating has dried on, the plants are sprayed with the conidia suspension of Puccinia. The plants remain in an incubation cabin at 20° C. and 100% relative atmospheric humidity for 48 hours.
The plants are then placed in a greenhouse at a temperature of about 20° C. and a relative atmospheric humidity of 80% in order to promote the development of rust pustules.
as §3

Another data set has as its system Puccinia recondite. In words: Puccinia test (wheat)/curative. Format: in vivo. The conditions noted are these: curative, 250 g/ha, 10 days after inoculation, 0% = control, 100% = no infestation. On the procedure: Puccinia test (wheat)/curative
Solvent: 10 parts by weight of N,N-dimethylacetamide
as §1, §2
To test for curative activity, young plants are sprayed with a conidia suspension of Puccinia recondite The plants remain in an incubation cabin at 20° C. and 100% relative atmospheric humidity for 48 hours. The plants are then sprayed with the active compound formulation in the stated application amount.
The plants are placed in a greenhouse at a temperature of about 20° C. and a relative atmospheric humidity of about 80% in order to promote the development of rust pustules.
as §3

The test system of the next data set is Pyricularia oryzae. Format: in vivo. The settings on record: rice, protective, 750 g/ha, 4 days after inoculation; 0% = control, 100% = no infestation.
The subject of data set [3] is Leptosphaeria nodorum. As to the kind of experiment: Leptosphaeria nodorum test (wheat)/protective. Type of data set: in vivo. The settings on record: protective, 250 g/ha, 10 days after inoculation, 0% = control, 100% = no infestation. On the procedure:
Leptosphaeria nodorum test (wheat)/protective
as §4, §1
To test for appropriate formulation of the active compound, 1 part by weight of active compound is mixed with the stated amounts of solvent and emulsifier, and the concentrate is diluted with water to the desired concentration.
To test for protective activity, young plants are sprayed with the formulation of the active compound in the stated application amount. After the spray coating has dried on, the plants are sprayed with a spore suspension of Leptosphaeria nodorum. The plants remain in an incubation cabin at 20° C. and 100% relative atmospheric humidity for 48 hours.
The plants are placed in a greenhouse at a temperature of about 15° C. and a relative atmospheric humidity of 80%.
as §3

A further data set deals with Phytophthora infestans. Format: in vivo. The conditions noted are these: tomato, protective, 100 g/ha, 3 days after inoculation; 0% = control, 100% = no infestation.
In a further data set the test system is Plasmopara viticola. In words: Plasmopara test (vine)/protective. Type of data set: in vivo. The conditions noted are these: protective, 100 g/ha, 6 days after inoculation, 0% = control, 100% = no infestation. On the procedure:
Plasmopara test (vine)/protective
Solvent: 47 parts by weight of acetone
Emulsifier: 3 parts by weight of alkylaryl polyglycol ether
as §2
To test for protective activity, young plants are sprayed with the formulation of the active compound in the stated application amount. After the spray coating has dried on, the plants are inoculated with an aqueous spore suspension of Plasmopara viticola and then remain in an incubation cabin at about 20° C. and 100% relative atmospheric humidity for 1 day. The plants are then placed in a greenhouse at about 21° C. and about 90% relative atmospheric humidity for 5 days. The plants are then moistened and placed in an incubation cabin for 1 day.
Evaluation is carried out 6 days after the inoculation. In this evaluation, 0% means a degree of action which corresponds to that of the control, while a degree of action of 100% means that no infestation is observed.

For `CON=C(C1=NOCCO1)c1ccccc1CSC(=Nc1ccc(OC)nc1)C1CC1` [Example 1], the chromatographic logP in data set [1] was 3.04. For the same compound, the degree of action was not below 95% in the data set on Leptosphaeria nodorum [2]; not below 90% in the data set on Puccinia; not below 100% in the data set with Puccinia recondite; not below 70% in the data set on Pyricularia oryzae; not below 90% with Leptosphaeria nodorum [3]; not below 90% with Phytophthora infestans. The compound further yielded a degree of action in the data set with Plasmopara viticola not below 90%.

The compound `CON=C(C1=NOCCO1)c1ccccc1CSC(=Nc1ccc(OC)cc1)C1CC1` [Example 2] gave a chromatographic logP in data set [1] of 3.16. The degree of action with Pyricularia oryzae is not below 70%.

Turning to `CON=C(C1=NOCCO1)c1ccccc1CSC(=Nc1ccccc1C(F)(F)F)C1CC1` [Example 3], in data set [1], the chromatographic logP stood at 4.16.
